≈ marks a conversion by molar mass, not a printed value. Like-named read-outs stand apart in the source and are kept apart here.
Key:
in vivo = details: for AUC(0-t): AUCt; for concentration at 0.5 h: read-out: Blood voriconazole concentration, Time 0.5 hr; for concentration at 1 h: read-out: Blood voriconazole concentration, Time 1 hr; for concentration at 2 h: read-out: Blood voriconazole concentration, Time 2 hr; for concentration at 4 h: read-out: Blood voriconazole concentration, Time 4 hr; for concentration at 6 h: read-out: Blood voriconazole concentration, Time 6 hr; for concentration at 8 h: read-out: Blood voriconazole concentration, Time 8 hr; for concentration at 10 h: read-out: Blood voriconazole concentration, Time 10 hr
Description: 24 male beagle dogs were divided into 4 groups, 6 animals per group. Voriconazole as a control drug was once administered to the animals via an oral route under fasting conditions. Efinaconazole as a test drug was once administered to the animals via intravenous and oral routes under fasting conditions. Thereafter, the pharmacokinetic (PK) profiles of the drugs were determined to calculate PK parameters of the drugs and evaluate the pharmacokinetics of the drugs. Specific test conditions and methods are as follows.
The test substances were weighed with an electronic balance. Each of the weighed test substances was placed in a glass container and 0.5% methylcellulose in a 1% Tween 80 solution (distilled water) as an excipient was added thereto. The mixture was vortexed and sonicated to prepare a homogeneous test material.
For intravenous administration, the doses of efinaconazole (intravenous administration group G1) were calculated based on the body weights of the animals. To the test substance was added PEG400 as an excipient whose volume corresponded to 30% of the total volume of a final test material. The mixture was vortexed and sonicated for complete dissolution. To the solution was added ethanol in an amount corresponding to 20% of the total volume of the test material, followed by homogenization by sonication. Then, 0.9% saline was added in an amount corresponding to 50% of the total volume of the test material, followed by vortexing and sonication to in situ prepare the test material in a homogeneous state.
• Routes of administration: Intravenous (IV) and oral (PO) • Doses: G1 (Voriconazole)—6 mg/5 ml/kg (PO); G2 (Efinaconazole)—6 mg/5 ml/kg (PO); G3 (Efinaconazole-Polymer)—6 mg/5 ml/kg (PO); G1 (Efinaconazole)—0.5 mg/I ml/kg (IV) • Frequency of administration: Single dose (once daily)—(QD)
4 ml of blood was collected from each point and centrifuged. 500 μl of the plasma supernatant was dispensed in a 1.5 ml EP tube and the remaining plasma was dispensed into a set of 1.5 ml EP tubes. The samples were stored in a deep freezer at −80° C. After completion of the testing, the blood collection records, sample information certificates, dispensing records, clinical symptom observation records, medication/blood collection results, and test samples (plasma samples) were sent to a specialized analysis agency.
After storage in a freezer, the samples were analyzed by LC/MS/MS and their pharmacokinetic parameters were calculated in a noncompartmental manner using “Phoenix WinNonlin (Version 8.2 or higher, Certara L. P)” software.
AUCt, a bioavailability parameter, is the area under the plasma concentration-time curve from the time of administration medication to the last time point of blood collection with a measurable concentration and was calculated by the trapezoidal formula. Cmax is the highest plasma drug concentration read from the plasma drug concentration-time curve of each sample and Tmax is the time taken to reach the highest plasma drug concentration read from the plasma drug concentration-time curve of each sample. AUC∞ is the area under the plasma concentration-time curve from the time of administration to time infinity.

[1] = cited from earlier work
[2] = Stability test of 10% solutions at room temperature and 65° C., purity by HPLC; type: physicochemical; details: solution (10%)
Description: The stability of the co-crystal of efinaconazole to temperature and a solution was evaluated and compared with that of efinaconazole by the following experimental method.
A co-crystalline form of efinaconazole was prepared.

[3] = male, beagle, dog, in vivo, 6 mg/kg, Geometric Means
[4] = male, beagle, dog, in vivo, po, 6 mg/kg, Cmax
[5] = male, beagle, dog, in vivo, po, 6 mg/kg, Geometric Means
[6] = male, beagle, dog, in vivo, po, 6 mg/kg, Geometric Means, Cmax
[7] = male, dog, in vivo, 6 mg/kg, beagle dog, fasting, single 6 mg/kg P.O, group Mean (6 animals)
[8] = male, dog, in vivo, 6 mg/kg, beagle dog, fasting, single 6 mg/kg P.O, individual animals
[9] = male, beagle, dog, in vivo, 0.5 mg/kg, Blood efinaconazole concentration, Time 12 hr

C[C@@H](c1ncncc1F)[C@](O)(Cn1cncn1)c1ccc(F)cc1F [Voriconazole]
AUCt/AUC∞ (in vivo; beagle dog, fasting, single 6 mg/kg P.O, group Mean (6 animals)): 51.125 | AUC(0-t) (in vivo; [3]): 53500 ng·h/mL | AUC(0-t) (in vivo; male, beagle, dog, in vivo, po, 6 mg/kg): 53900 ng·h/mL | AUC(0-inf) (in vivo; male, beagle, dog, in vivo, po, 6 mg/kg, AUC∞): 109000 ng·h/mL | Cmax (in vivo; [4]): 3670 ng/mL | AUC(0-t) (in vivo; [5]): 53500 ng·h/mL | Cmax (in vivo; [6]): 3670 ng/mL | concentration at 0.053 h (in vivo; male, dog, in vivo, 6 mg/kg, beagle dog, fasting, single 6 mg/kg P.O, group Mean (6 animals), read-out: Blood voriconazole concentration, Time 0.053 hr): 443 ng/mL | concentration at 0.25 h (in vivo; male, dog, in vivo, 6 mg/kg, beagle dog, fasting, single 6 mg/kg P.O, group Mean (6 animals), read-out: Blood voriconazole concentration, Time 0.25 hr): 2720 ng/mL | concentration at 0.5 h (in vivo; [7]): 3410 ng/mL | concentration at 1 h (in vivo; [7]): 3440 ng/mL | concentration at 2 h (in vivo; [7]): 3090 ng/mL | concentration at 4 h (in vivo; [7]): 2950 ng/mL | concentration at 6 h (in vivo; [7]): 2610 ng/mL | concentration at 8 h (in vivo; [7]): 2460 ng/mL | concentration at 10 h (in vivo; [7]): 2270 ng/mL | concentration at 12 h (in vivo; male, dog, in vivo, 6 mg/kg, beagle dog, fasting, single 6 mg/kg P.O, group Mean (6 animals), read-out: Blood voriconazole concentration, Time 12 hr): 2180 ng/mL | concentration at 24 h (in vivo; male, dog, in vivo, 6 mg/kg, beagle dog, fasting, single 6 mg/kg P.O, group Mean (6 animals), read-out: Blood voriconazole concentration, Time 24 hr): 1500 ng/mL | concentration at 0.5 h (in vivo; [8]): 3280 ng/mL | concentration at 1 h (in vivo; [8]): 3280 ng/mL | concentration at 2 h (in vivo; [8]): 3000 ng/mL | concentration at 4 h (in vivo; [8]): 2940 ng/mL | concentration at 6 h (in vivo; [8]): 2660 ng/mL | concentration at 8 h (in vivo; [8]): 2430 ng/mL | concentration at 10 h (in vivo; [8]): 2250 ng/mL | concentration at 12 h (in vivo; male, dog, in vivo, 6 mg/kg, beagle dog, fasting, single 6 mg/kg P.O, individual animals, read-out: Blood voriconazole concentration, Time 12 hr): 2160 ng/mL | concentration at 24 h (in vivo; male, dog, in vivo, 6 mg/kg, beagle dog, fasting, single 6 mg/kg P.O, individual animals, read-out: Blood voriconazole concentration, Time 24 hr): 1470 ng/mL | Cmax (in vivo; male, dog, in vivo, po, 6 mg/kg, beagle dog, fasting, single 6 mg/kg P.O, individual animals, read-out: Cmax): 3520 ng/mL

C=C1CCN([C@H](C)[C@](O)(Cn2cncn2)c2ccc(F)cc2F)CC1 [Efinaconazole]
water solubility [1]: ~610 µg/mL (≈ 1750 µM) | Blood efinaconazole concentration, Time 8 hr (in vivo; dog, in vivo, 0.5 mg/kg): BLQ | Blood efinaconazole concentration, Time 10 hr (in vivo; dog, in vivo, 0.5 mg/kg): BLQ | Blood efinaconazole concentration, Time 12 hr (in vivo; dog, in vivo, 0.5 mg/kg): BLQ | Blood efinaconazole concentration, Time 24 hr (in vivo; dog, in vivo, 0.5 mg/kg): BLQ | bioavailability compared with other antifungals when administered orally (in vivo; dog, in vivo, po): higher than those of other antifungals, including voriconazole and itraconazole | concentration at 0.053 h (in vivo; male, beagle, dog, in vivo, 0.5 mg/kg, Blood efinaconazole concentration, Time 0.053 hr): 262 ng/mL | concentration at 0.25 h (in vivo; male, beagle, dog, in vivo, 0.5 mg/kg, Blood efinaconazole concentration, Time 0.25 hr): 168 ng/mL | concentration at 12 h (in vivo; [9]): 1.36 ng/mL | concentration at 12 hr (in vivo; [9]): 3.52 ng/mL | concentration at 24 h (in vivo; male, beagle, dog, in vivo, 0.5 mg/kg, Blood efinaconazole concentration, Time 24 hr): 0 ng/mL | AUC(0-t) (in vivo; male, beagle, dog, in vivo, 0.5 mg/kg, Geometric Means): 245 ng·h/mL | Cmax (in vivo; male, beagle, dog, in vivo, 0.5 mg/kg, Geometric Means, Cmax): 318 ng/mL | bioavailability (in vivo; male, beagle, dog, in vivo, 6 mg/kg): 51.4 ± 24.6% | concentration at 2 hr (in vivo; male, beagle, dog, in vivo, 6 mg/kg, Blood efinaconazole concentration, Time 2 hr): 177 ng/mL | concentration at 4 hr (in vivo; male, beagle, dog, in vivo, 6 mg/kg, Blood efinaconazole concentration, Time 4 hr): 64.9 ng/mL | concentration at 6 hr (in vivo; male, beagle, dog, in vivo, 6 mg/kg, Blood efinaconazole concentration, Time 6 hr): 27.5 ng/mL | AUC(0-t) (in vivo; [3]): 1440 ng·h/mL | Cmax (in vivo; male, beagle, dog, in vivo, iv, 0.5 mg/kg, Cmax): 322 ± 58.6 ng/mL | Tmax (in vivo; male, beagle, dog, in vivo, iv, 0.5 mg/kg, Tmax): 4.98 min | Cmax (in vivo; [4]): 925 ± 236 ng/mL | AUC(0-t) (in vivo; [5]): 1440 ng·h/mL | Cmax (in vivo; [6]): 904 ng/mL | HPLC (%) After 1 week ([2]; 65° C.): 99.55% | Related substances (%) After 1 week ([2]; 65° C.): 0.45% | HPLC (%) After 2 weeks ([2]; 65° C.): 99.46% | Related substances (%) After 2 weeks ([2]; 65° C.): 0.54% | HPLC (%) After 4 weeks ([2]; 65° C.): 98.47% | Related substances (%) After 4 weeks ([2]; 65° C.): 1.53% | HPLC (%) After 1 week ([2]; room temp.): 99.73% | Related substances (%) After 1 week ([2]; room temp.): 0.27% | HPLC (%) After 2 weeks ([2]; room temp.): 99.61% | Related substances (%) After 2 weeks ([2]; room temp.): 0.39% | HPLC (%) After 4 weeks ([2]; room temp.): 99.60% | Related substances (%) After 4 weeks ([2]; room temp.): 0.40%

From patent US20250281476A1, “EFINACONAZOLE ORAL COMPOSITION” (priority 2020, published 2025)
